Measured values reported in patent US20140179664A1, “Heterocyclyl Pyrimidine Analogues As JAK Inhibitors” (Cellzome Limited, priority 2011, published 2014).

Assays:
JAK3 = target: T1, JAK3 (Homo sapiens, UniProt P52333); assay: Kinobeads assay, JAK3; type: binding; details: mixed Molt4/Ramos lysate, read-out: Inhibition values (IC50) JAK3
T1 construct: endogenous in cells; host or cells: Molt4 (ATCC CRL-1582) and Ramos (ATCC CRL-1596), mixed lysate 1:2
T1 sequence (P52333 1-1124): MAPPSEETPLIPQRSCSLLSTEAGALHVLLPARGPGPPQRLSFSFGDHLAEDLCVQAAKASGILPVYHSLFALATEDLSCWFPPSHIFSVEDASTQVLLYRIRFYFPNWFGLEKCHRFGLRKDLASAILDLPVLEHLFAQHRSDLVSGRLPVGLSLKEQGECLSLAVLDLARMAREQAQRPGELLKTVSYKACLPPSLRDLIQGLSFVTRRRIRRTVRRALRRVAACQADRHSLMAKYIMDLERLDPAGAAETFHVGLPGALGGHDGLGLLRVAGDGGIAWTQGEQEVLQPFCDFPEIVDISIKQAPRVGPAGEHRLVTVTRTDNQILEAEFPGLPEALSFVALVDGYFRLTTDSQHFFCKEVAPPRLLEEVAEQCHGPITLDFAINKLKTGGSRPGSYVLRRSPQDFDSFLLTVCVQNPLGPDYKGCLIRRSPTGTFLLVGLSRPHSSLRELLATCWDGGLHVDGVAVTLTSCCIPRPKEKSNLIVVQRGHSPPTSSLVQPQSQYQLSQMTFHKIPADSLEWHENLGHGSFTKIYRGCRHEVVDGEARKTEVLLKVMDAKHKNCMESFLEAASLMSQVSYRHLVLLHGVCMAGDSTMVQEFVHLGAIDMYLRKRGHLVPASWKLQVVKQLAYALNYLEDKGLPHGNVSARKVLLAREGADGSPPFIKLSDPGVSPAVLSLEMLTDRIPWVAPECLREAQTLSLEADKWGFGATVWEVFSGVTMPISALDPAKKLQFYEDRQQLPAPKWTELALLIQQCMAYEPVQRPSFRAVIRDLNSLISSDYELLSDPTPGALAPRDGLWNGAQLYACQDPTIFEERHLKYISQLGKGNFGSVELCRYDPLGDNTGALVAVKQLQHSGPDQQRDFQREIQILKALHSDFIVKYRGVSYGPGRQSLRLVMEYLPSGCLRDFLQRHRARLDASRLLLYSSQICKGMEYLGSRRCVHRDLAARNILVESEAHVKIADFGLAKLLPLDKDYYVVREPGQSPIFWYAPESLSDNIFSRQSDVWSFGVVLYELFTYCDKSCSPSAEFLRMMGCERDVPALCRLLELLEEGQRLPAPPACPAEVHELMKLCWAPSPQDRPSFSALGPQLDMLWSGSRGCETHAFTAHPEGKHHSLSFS
Method: (§1) The compounds of the present invention as described in the previous examples were tested in a Kinobeads™ assay as described for ZAP-70 (WO-A 2007/137867). Briefly, test compounds (at various concentrations) and the affinity matrix with the immobilized aminopyrido-pyrimidine ligand 24 were added to cell lysate aliquots and allowed to bind to the proteins in the lysate sample. After the incubation time the beads with captured proteins were separated from the lysate. Bound proteins were then eluted and the presence of JAK1, JAK2, JAK3 and TYK2 was detected and quantified using specific antibodies in a dot blot procedure and the Odyssey infrared detection system. Dose response curves for individual kinases were generated and IC50 values calculated. Kinobeads™ assays for ZAP-70 (WO-A 2007/137867) and for kinase selectivity profiling (WO-A 2006/134056) have been previously described.
(§2) The affinity matrix was washed two times with 15 mL of lx DP buffer containing 0.2% NP40 (IGEPAL® CA-630, Sigma, #13021) and then resuspended in 1×DP buffer containing 0.2% NP40 (3% beads slurry).
(§3) 5×DP buffer: 250 mM Tris-HCl pH 7.4, 25% Glycerol, 7.5 mM MgCl2, 750 mM NaCl, 5 mM Na3VO4; filter the 5×DP buffer through a 0.22 μm filter and store in aliquots at −80° C. The 5×DP buffer is diluted with H2O to 1×DP buffer containing 1 mM DTT and 25 mM NaF.
(§4) Stock solutions of test compounds were prepared in DMSO. In a 96 well plate […] solution of diluted test compounds at 5 mM in DMSO were prepared. Starting with this solution a 1:3 dilution series (9 steps) was prepared. For control experiments (no test compound) a buffer containing 2% DMSO was used.
(§5) Molt4 cells (ATCC catalogue number CRL-1582) and Ramos cells (ATCC catalogue number CRL-1596) were grown in 1 L Spinner flasks (Integra Biosciences, #182101) in suspension in RPMI 1640 medium (Invitrogen, #21875-034) supplemented with 10% Fetal Bovine Serum (Invitrogen) at a density between 0.15×10^6 and 1.2×10^6 cells/mL. Cells were harvested by centrifugation, washed once with 1×PBS buffer (Invitrogen, #14190-094) and cell pellets were frozen in liquid nitrogen and subsequently stored at −80° C. Cells were homogenized in a Potter S homogenizer in lysis buffer: 50 mM Tris-HCl, 0.8% NP40, 5% glycerol, 150 mM NaCl, 1.5 mM MgCl2, 25 mM NaF, 1 mM sodium vanadate, 1 mM DTT, pH 7.5. One complete EDTA-free tablet (protease inhibitor cocktail, Roche Diagnostics, 1873580) per 25 mL buffer was added. The material was dounced 10 times using a mechanized POTTER S, transferred to 50 mL falcon tubes, incubated for 30 minutes on ice and spun down for 10 minutes at 20,000 g at 4° C. (10,000 rpm in Sorvall SLA600, precooled). The supernatant was transferred to an ultracentrifuge (UZ)-polycarbonate tube (Beckmann, 355654) and spun for 1 hour at 100.000 g at 4° C. (33.500 rpm in Ti50.2, precooled). The supernatant was transferred again to a fresh 50 mL falcon tube, the protein concentration was determined by a Bradford assay (BioRad) and samples containing 50 mg of protein per aliquot were prepared. The samples were immediately used for experiments or frozen in liquid nitrogen and stored frozen at −80° C.
(§6) Cell lysate (approximately 50 mg protein per plate) was thawed in a water bath at room temperature and then stored on ice. To the thawed cell lysate 1×DP 0.8% NP40 buffer containing protease inhibitors (1 tablet for 25 mL buffer; EDTA-free protease inhibitor cocktail; Roche Diagnostics 1873580) was added in order to reach a final protein concentration of 10 mg/mL total protein. The diluted cell lysate was stored on ice. Mixed Molt4/Ramos lysate was prepared by combining one volume of Molt4 lysate and two volumes of Ramos lysate (ratio 1:2).
(§7) To a 96 well filter plate (Multiscreen HTS, BV Filter Plates, Millipore #MSBVN1250) were added per well: 100 μL affinity matrix (3% beads slurry), […], of compound solution, and 50 μL of diluted lysate. […]

JAK2 = target: T2, JAK2 (Homo sapiens, UniProt O60674); assay: Kinobeads assay, JAK2; type: binding; details: mixed Molt4/Ramos lysate, read-out: Inhibition values (IC50) JAK2
T2 construct: endogenous in cells; host or cells: Molt4 (ATCC CRL-1582) and Ramos (ATCC CRL-1596), mixed lysate 1:2
T2 sequence (O60674 whole entry): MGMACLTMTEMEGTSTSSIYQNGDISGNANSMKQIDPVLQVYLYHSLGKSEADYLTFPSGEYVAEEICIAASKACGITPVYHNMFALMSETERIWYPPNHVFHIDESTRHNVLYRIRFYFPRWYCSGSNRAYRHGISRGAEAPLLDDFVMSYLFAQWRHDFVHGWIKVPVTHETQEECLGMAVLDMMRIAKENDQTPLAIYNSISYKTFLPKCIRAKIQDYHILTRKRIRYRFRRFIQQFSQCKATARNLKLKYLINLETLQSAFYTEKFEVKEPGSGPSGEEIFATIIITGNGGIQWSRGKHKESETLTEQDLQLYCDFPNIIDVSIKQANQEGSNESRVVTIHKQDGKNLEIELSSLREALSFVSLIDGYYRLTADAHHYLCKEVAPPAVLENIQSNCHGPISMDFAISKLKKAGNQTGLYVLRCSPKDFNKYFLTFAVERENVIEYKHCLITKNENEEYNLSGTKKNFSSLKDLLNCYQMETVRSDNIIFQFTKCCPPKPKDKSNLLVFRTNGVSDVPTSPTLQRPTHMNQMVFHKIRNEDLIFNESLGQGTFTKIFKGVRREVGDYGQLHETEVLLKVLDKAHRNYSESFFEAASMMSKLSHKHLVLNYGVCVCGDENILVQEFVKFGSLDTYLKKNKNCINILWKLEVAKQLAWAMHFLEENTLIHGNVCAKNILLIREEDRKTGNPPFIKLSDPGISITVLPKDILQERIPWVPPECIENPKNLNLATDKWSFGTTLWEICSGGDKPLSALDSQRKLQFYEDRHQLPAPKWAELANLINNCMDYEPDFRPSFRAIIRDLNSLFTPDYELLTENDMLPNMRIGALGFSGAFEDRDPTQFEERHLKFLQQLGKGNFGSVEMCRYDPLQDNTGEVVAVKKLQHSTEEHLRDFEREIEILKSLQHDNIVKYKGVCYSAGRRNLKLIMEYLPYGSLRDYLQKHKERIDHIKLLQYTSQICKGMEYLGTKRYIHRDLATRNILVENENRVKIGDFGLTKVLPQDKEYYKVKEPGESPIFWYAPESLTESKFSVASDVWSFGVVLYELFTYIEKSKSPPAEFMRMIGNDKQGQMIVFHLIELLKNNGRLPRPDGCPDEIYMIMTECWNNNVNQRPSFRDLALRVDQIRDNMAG
Method: as §1, §2, §3, §4, §5, §6, §7

Row | Compound | IC50 (JAK3) [nM] | IC50 (JAK2) [nM]
1 | NC(=O)Cn1cc(Nc2ncc(Cl)c(NC(CO)c3cc(F)ccc3F)n2)cn1 (centres unmarked) [Compound 132] | < 100 | 100 to 1000
2 | Cn1cc(Nc2ncc(Cl)c(N[C@H](CO)c3ccccc3)n2)cn1 [Compound 4] | < 100 | 1000 to 10000
3 | CNC(=O)Cn1cc(Nc2ncc(Cl)c(N[C@H](CO)c3cc(F)ccc3F)n2)cn1 [Compound 141] | < 100 | 100 to 1000
4 | Cn1cc(Nc2ncc(Cl)c(NC(CO)c3ccccc3Cl)n2)cn1 (centres unmarked) [Compound 117] | < 100 | 1000 to 10000
5 | NC(=O)Cn1cc(Nc2ncc(Cl)c(N[C@H](CO)c3cc(F)cc(F)c3)n2)cn1 [Compound 144] | < 100 | 100 to 1000
6 | Cn1cc(Nc2ncc(C(F)(F)F)c(NC(C)(CO)c3ccccc3)n2)cn1 (centres unmarked) [Compound 8] | 100 to 1000 | ≥ 10000
7 | CCn1cc(Nc2ncc(Cl)c(N[C@H](CO)c3ccccc3OC)n2)cn1 [Compound 95] | < 100 | 100 to 1000
8 | Cc1cnc(Nc2cnn(C)c2)nc1N[C@H](CO)c1cccc(-c2cnn(C)c2)c1 [Compound 149] | 100 to 1000 | ≥ 10000
9 | Cn1cc(-c2cccc(C(CO)Nc3nc(Nc4cnn(CCO)c4)ncc3Cl)c2)cn1 (centres unmarked) [Compound 94] | 100 to 1000 | ≥ 10000
10 | CN(C)C(=O)C(Nc1nc(Nc2cnn(CCO)c2)ncc1Cl)c1ccccc1F (centres unmarked) [Compound 127] | 100 to 1000 | 1000 to 10000
11 | Cn1cc(-c2cccc([C@@H](CO)Nc3nc(Nc4cnn(CCO)c4)ncc3Cl)c2)cn1 [Compound 151] | 100 to 1000 | ≥ 10000
12 | CNC(=O)Cn1cc(Nc2ncc(Cl)c(N[C@H](CO)c3cc(F)cc(F)c3)n2)cn1 [Compound 145] | < 100 | 100 to 1000
13 | Cn1cc(-c2cc(F)cc([C@@H](CO)Nc3nc(Nc4cnn(CCO)c4)ncc3F)c2)cn1 [Compound 153] | 100 to 1000 | ≥ 10000
14 | CNC(=O)Cn1cc(Nc2ncc(C)c(N[C@H](CO)c3ccccc3)n2)cn1 [Compound 133] | < 100 | 1000 to 10000
15 | NCCCn1cc(Nc2ncc(Cl)c(N[C@H](CO)c3ccccc3)n2)cn1 [Compound 113] | < 100 | 1000 to 10000
16 | CNC(=O)Cn1cc(Nc2ncc(F)c(N[C@H](CO)c3cc(F)cc(-c4cnn(C)c4)c3)n2)cn1 [Compound 157] | 100 to 1000 | ≥ 10000
